These results are taken from patent US8901118B2, “Compounds and methods for kinase modulation, and indications therefor” (Plexxikon Inc., priority 2010, dated 2014).

Where only a bound is given, the exact number is not on record here.

The target of one experiment is T1, BCR-NTRK1 BaF3 cells (Homo sapiens, UniProt P04629).
T1 construct: fused on or other part: P11274 (Breakpoint cluster region protein)
As to the kind of experiment: BaF3 BCR-NTRK1 cell proliferation assay (ATPlite). The format is cell-based. Conditions: read-out: Inhibition of Cell Proliferation IC50, BCR/BaF3 TrkA. The gist of the method:
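IL-3-free growth, 3-day compound exposure (8-point 1:3 titration, top 10 μM, DMSO control), 37 °C 5% CO2. BaF3 10,000 or MV-4-11 25,000 cells/well, plated overnight beforehand. Read-out ATPlite luminescence vs concentration → IC50.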

Another experiment addresses c-Kit kinase (Homo sapiens, UniProt P10721). In words: c-Kit kinase biochemical activity assay (AlphaScreen, biotin-(E4Y)10 phosphorylation). Conditions: 100 μM ATP; read-out: Biochemical Inhibition IC50 Kit. The gist of the method:
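AlphaScreen read-out (streptavidin donor, anti-phosphotyrosine PY20 acceptor beads, EDTA stop) of c-Kit activity. Reaction: 0.75 ng kinase, 100 µM ATP, 30 nM biotin-(E4Y)10, 25 mM HEPES pH 7.5, 2 mM MgCl2, 2 mM MnCl2, 5% DMSO, 1 h room temperature. IC50 derived over an 8-point, two-fold dilution series.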

T1 sequence (P04629 510-781): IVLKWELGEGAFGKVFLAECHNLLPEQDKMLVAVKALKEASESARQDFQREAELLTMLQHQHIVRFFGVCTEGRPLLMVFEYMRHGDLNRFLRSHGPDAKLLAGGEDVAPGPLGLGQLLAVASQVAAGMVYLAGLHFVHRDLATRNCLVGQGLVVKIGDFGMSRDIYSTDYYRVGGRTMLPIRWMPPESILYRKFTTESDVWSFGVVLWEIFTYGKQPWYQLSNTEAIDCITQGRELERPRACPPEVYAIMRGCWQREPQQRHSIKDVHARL
Sequence of c-Kit kinase (P10721 26-976): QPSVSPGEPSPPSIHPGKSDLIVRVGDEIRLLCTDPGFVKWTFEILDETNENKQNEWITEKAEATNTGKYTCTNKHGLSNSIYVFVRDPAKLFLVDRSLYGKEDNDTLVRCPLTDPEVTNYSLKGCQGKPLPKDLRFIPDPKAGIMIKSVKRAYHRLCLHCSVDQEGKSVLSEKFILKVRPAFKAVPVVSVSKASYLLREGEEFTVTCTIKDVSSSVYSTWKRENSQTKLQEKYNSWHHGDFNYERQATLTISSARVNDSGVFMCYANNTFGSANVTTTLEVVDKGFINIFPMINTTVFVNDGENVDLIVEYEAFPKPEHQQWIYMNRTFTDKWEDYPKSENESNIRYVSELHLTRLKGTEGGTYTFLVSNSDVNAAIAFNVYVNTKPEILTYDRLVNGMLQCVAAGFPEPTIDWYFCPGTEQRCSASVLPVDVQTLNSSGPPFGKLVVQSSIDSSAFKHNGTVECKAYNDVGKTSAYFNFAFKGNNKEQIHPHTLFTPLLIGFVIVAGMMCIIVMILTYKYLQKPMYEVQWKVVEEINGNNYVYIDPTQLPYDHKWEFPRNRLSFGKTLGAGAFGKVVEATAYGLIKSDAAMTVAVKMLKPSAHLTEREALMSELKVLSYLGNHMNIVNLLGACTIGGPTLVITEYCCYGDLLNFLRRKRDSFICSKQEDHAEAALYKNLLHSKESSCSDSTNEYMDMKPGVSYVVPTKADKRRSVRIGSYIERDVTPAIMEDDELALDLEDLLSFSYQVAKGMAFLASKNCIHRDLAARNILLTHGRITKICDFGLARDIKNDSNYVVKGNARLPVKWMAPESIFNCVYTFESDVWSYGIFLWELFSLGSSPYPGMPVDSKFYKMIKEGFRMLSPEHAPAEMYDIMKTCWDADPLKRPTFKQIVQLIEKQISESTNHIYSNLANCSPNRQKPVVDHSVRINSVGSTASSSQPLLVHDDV

Turning to `Cc1cnc2[nH]cc(Cc3cnc(Nc4cc(C(F)(F)F)n[nH]4)nc3)c2c1` [Compound P-3037, [5-(5-Methyl-1H-pyrrolo[2,3-b]pyridin-3-ylmethyl)-pyrimidin-2-yl]-(5-trifluoromethyl-2H-pyrazol-3-yl)-amine], the IC50 at BCR-NTRK1 BaF3 cells was greater than 1000 nM; at c-Kit kinase it was less than 1000 nM.

`CCOc1ccc(Nc2ccc(Cc3c[nH]c4ncnc(OCCOC)c34)c(F)n2)cn1` [Compound P-4008, (6-Ethoxy-pyridin-3-yl)-{6-fluoro-5-[4-(2-methoxy-ethoxy)-7H-pyrrolo[2,3-d]pyrimidin-5-ylmethyl]-pyridin-2-yl}-amine]: the IC50 on BCR-NTRK1 BaF3 cells was less than 100 nM; on c-Kit kinase, less than 1000 nM.

Turning to `CCOc1ncnc2[nH]cc(C(=O)c3ccc(Nc4ccc(OC)nc4)nc3F)c12` [Compound P-4025, (4-Ethoxy-7H-pyrrolo[2,3-d]pyrimidin-5-yl)-[2-fluoro-6-(6-methoxy-pyridin-3-ylamino)-pyridin-3-yl]-methanone], the IC50 on BCR-NTRK1 BaF3 cells was less than 100 nM; on c-Kit kinase it was greater than 1000 nM.

In the case of `CCOc1ccc(Nc2ccc(C(=O)c3c[nH]c4ncnc(C5CC5)c34)c(F)n2)cn1` [Compound P-4027, (4-Cyclopropyl-7H-pyrrolo[2,3-d]pyrimidin-5-yl)-[6-(6-ethoxy-pyridin-3-ylamino)-2-fluoro-pyridin-3-yl]-methanone], the IC50 at BCR-NTRK1 BaF3 cells and on c-Kit kinase was less than 100 nM each time.

Consider `CCOc1ccc(Nc2ccc(C(=O)c3c[nH]c4ncnc(C)c34)c(F)n2)cn1` [Compound P-4032, [6-(6-Ethoxy-pyridin-3-ylamino)-2-fluoro-pyridin-3-yl]-(4-methyl-7H-pyrrolo[2,3-d]pyrimidin-5-yl)-methanone], for which the IC50 at BCR-NTRK1 BaF3 cells and at c-Kit kinase was less than 100 nM in each case.

In the case of `CCc1ccc(Nc2ccc(Cc3c[nH]c4ncnc(C)c34)c(F)n2)cn1` [Compound P-4009, (6-Ethyl-pyridin-3-yl)-[6-fluoro-5-(4-methyl-7H-pyrrolo[2,3-d]pyrimidin-5-ylmethyl)-pyridin-2-yl]-amine], the IC50 on BCR-NTRK1 BaF3 cells and on c-Kit kinase was less than 100 nM throughout.

As for `COc1ccc(Nc2ccc(Cc3c[nH]c4ncnc(C5CC5)c34)c(F)n2)cn1` [Compound P-4023, [5-(4-cyclopropyl-7H-pyrrolo[2,3-d]pyrimidin-5-ylmethyl)-6-fluoro-pyridin-2-yl]-(6-methoxy-pyridin-3-yl)-amine], the values for the IC50 on BCR-NTRK1 BaF3 cells and at c-Kit kinase were less than 100 nM and less than 1000 nM, respectively.

Turning to `CCn1cc(Nc2ccc(Cc3c[nH]c4ncnc(C5CC5)c34)c(F)n2)cn1` [Compound P-4036, [5-(4-Cyclopropyl-7H-pyrrolo[2,3-d]pyrimidin-5-ylmethyl)-6-fluoro-pyridin-2-yl]-(1-ethyl-1H-pyrazol-4-yl)-amine], the IC50 at BCR-NTRK1 BaF3 cells and at c-Kit kinase was less than 1000 nM each time.

In the case of `CCc1ccc(Nc2ccc(Cc3c[nH]c4ncc(C)cc34)c(F)n2)cn1` [Compound P-3048, (6-Ethyl-pyridin-3-yl)-[6-fluoro-5-(5-methyl-1H-pyrrolo[2,3-b]pyridin-3-ylmethyl)-pyridin-2-yl]-amine], the IC50 on BCR-NTRK1 BaF3 cells and on c-Kit kinase was less than 100 nM throughout.

As to `COc1ccc(Nc2ccc(C(=O)c3c[nH]c4ncc(C)cc34)c(F)n2)cn1` [Compound P-3040, [2-Fluoro-6-(6-methoxy-pyridin-3-ylamino)-pyridin-3-yl]-(5-methyl-1H-pyrrolo[2,3-b]pyridin-3-yl)-methanone], the IC50 on BCR-NTRK1 BaF3 cells was less than 100 nM; at c-Kit kinase, greater than 1000 nM.

As to `CCOc1ccc(Nc2ccc(Cc3c[nH]c4ncc(C)cc34)c(F)n2)cn1` [Compound P-3039, (6-ethoxy-pyridin-3-yl)-[6-fluoro-5-(5-methyl-1H-pyrrolo[2,3-b]pyridin-3-ylmethyl)-pyridin-2-yl]-amine], the results for the IC50 at BCR-NTRK1 BaF3 cells and on c-Kit kinase were less than 1000 nM and less than 100 nM, respectively.

Take `CCn1cc(Nc2ncc(Cc3c[nH]c4ncc(C)cc34)cn2)cn1` [Compound P-3036, (1-Ethyl-1H-pyrazol-4-yl)-[5-(5-methyl-1H-pyrrolo[2,3-b]pyridin-3-ylmethyl)-pyrimidin-2-yl]-amine]: the IC50 at BCR-NTRK1 BaF3 cells is less than 1000 nM; on c-Kit kinase, less than 100 nM.

Regarding `CCc1ccc(Nc2ccc(C(=O)c3c[nH]c4ncc(C)cc34)c(F)n2)cn1` [Compound P-3049, [6-(6-Ethyl-pyridin-3-ylamino)-2-fluoro-pyridin-3-yl]-(5-methyl-1H-pyrrolo[2,3-b]pyridin-3-yl)-methanone], the IC50 on BCR-NTRK1 BaF3 cells is less than 10 nM; on c-Kit kinase it was less than 100 nM.

Turning to `CCOc1ccc(Nc2ncc(Cc3c[nH]c4ncc(C)cc34)cn2)cc1` [Compound P-3026, (4-Ethoxy-phenyl)-[5-(5-methyl-1H-pyrrolo[2,3-b]pyridin-3-ylmethyl)-pyrimidin-2-yl]-amine], the IC50 on BCR-NTRK1 BaF3 cells is less than 100 nM; on c-Kit kinase, less than 10 nM.

Take `Cc1cncc(Nc2ccc(C(=O)c3c[nH]c4ncnc(C5CC5)c34)c(F)n2)c1` [Compound P-4039, (4-Cyclopropyl-7H-pyrrolo[2,3-d]pyrimidin-5-yl)-[2-fluoro-6-(5-methyl-pyridin-3-ylamino)-pyridin-3-yl]-methanone]: the IC50 at BCR-NTRK1 BaF3 cells is less than 100 nM; at c-Kit kinase it was less than 1000 nM.

With `Cc1cnc2[nH]cc(Cc3ccc(Nc4ccc(C5CC5)nc4)nc3F)c2c1` [Compound P-3050, (6-Cyclopropyl-pyridin-3-yl)-[6-fluoro-5-(5-methyl-1H-pyrrolo[2,3-b]pyridin-3-ylmethyl)-pyridin-2-yl]-amine], the IC50 on BCR-NTRK1 BaF3 cells and on c-Kit kinase was less than 100 nM each time.

In the case of `COc1cc(Nc2ncc(Cc3c[nH]c4ncc(C)cc34)cn2)ccc1F` [Compound P-3022, (4-Fluoro-3-methoxy-phenyl)-[5-(5-methyl-1H-pyrrolo[2,3-b]pyridin-3-ylmethyl)-pyrimidin-2-yl]-amine], the figures for the IC50 at BCR-NTRK1 BaF3 cells and at c-Kit kinase were less than 1000 nM and less than 100 nM, respectively.

Take `FC1(F)CCC(Nc2ncc(Cc3c[nH]c4ncc(Cl)cc34)cn2)CC1` [Compound P-3004]: the values for the IC50 on BCR-NTRK1 BaF3 cells and on c-Kit kinase were less than 10000 nM and less than 1000 nM, respectively.

For the compound `Cc1cnc2[nH]cc(Cc3cnc(Nc4cc(-c5ccc(F)cc5)n[nH]4)nc3)c2c1` [Compound P-3028, [5-(4-Fluoro-phenyl)-2H-pyrazol-3-yl]-[5-(5-methyl-1H-pyrrolo[2,3-b]pyridin-3-ylmethyl)-pyrimidin-2-yl]-amine], the values for the IC50 at BCR-NTRK1 BaF3 cells and at c-Kit kinase were less than 100 nM and less than 1000 nM, respectively.

As for `CCOc1ncnc2[nH]cc(Cc3ccc(Nc4ccc(OC)nc4)nc3F)c12` [Compound P-4018, [5-(4-Ethoxy-7H-pyrrolo[2,3-d]pyrimidin-5-ylmethyl)-6-fluoro-pyridin-2-yl]-(6-methoxy-pyridin-3-yl)-amine], the IC50 at BCR-NTRK1 BaF3 cells and at c-Kit kinase was less than 100 nM throughout.

As to `CCc1ccc(Nc2ccc(Cc3c[nH]c4ncnc(C5CC5)c34)c(F)n2)cn1` [Compound P-4028, [5-(4-Cyclopropyl-7H-pyrrolo[2,3-d]pyrimidin-5-ylmethyl)-6-fluoro-pyridin-2-yl]-(6-ethyl-pyridin-3-yl)-amine], the IC50 at BCR-NTRK1 BaF3 cells was less than 10 nM; on c-Kit kinase it was less than 100 nM.

In the case of `CCn1cc(Nc2ccc(C(=O)c3c[nH]c4ncnc(C5CC5)c34)c(F)n2)cn1` [Compound P-4037, (4-Cyclopropyl-7H-pyrrolo[2,3-d]pyrimidin-5-yl)-[6-(1-ethyl-1H-pyrazol-4-ylamino)-2-fluoro-pyridin-3-yl]-methanone], the IC50 at BCR-NTRK1 BaF3 cells was less than 100 nM; at c-Kit kinase it was less than 1000 nM.
